Measured values from patent US9346786B2, “Pyrrolidine compounds” (Hoffmann-La Roche Inc., priority 2009, dated 2016).

What follows are compounds tested against recombinant human NK3 receptor (Homo sapiens (Human), UniProt P29371) (assay: biochemical). Settings: [3H]SR142801, membranes of HEK293 cells transiently expressing recombinant human NK3 receptor; read-out: Data Ki (hNK-3 receptor affinity).
Format: binding

Chain of recombinant human NK3 receptor (P29371 whole entry): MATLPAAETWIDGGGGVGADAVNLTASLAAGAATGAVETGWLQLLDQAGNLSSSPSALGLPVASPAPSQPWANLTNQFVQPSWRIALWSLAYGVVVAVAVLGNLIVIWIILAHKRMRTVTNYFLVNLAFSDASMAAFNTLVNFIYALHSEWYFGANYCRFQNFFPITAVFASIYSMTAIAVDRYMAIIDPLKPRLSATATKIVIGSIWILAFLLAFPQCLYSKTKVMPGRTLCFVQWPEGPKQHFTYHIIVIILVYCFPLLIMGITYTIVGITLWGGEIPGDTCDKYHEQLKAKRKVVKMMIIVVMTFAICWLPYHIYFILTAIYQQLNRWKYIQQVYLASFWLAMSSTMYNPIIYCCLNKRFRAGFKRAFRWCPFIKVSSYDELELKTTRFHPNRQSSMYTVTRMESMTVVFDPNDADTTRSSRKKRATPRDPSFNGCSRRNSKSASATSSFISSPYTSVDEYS

SMILES | Ki [nM]
CCN(C(=O)Oc1ccc(F)cc1)[C@@H]1CN(C(=O)C2CCN(C(=O)C3(C)COC3)CC2)C[C@H]1c1ccc(Cl)c(F)c1 [Example 65, {(3S,4R)-4-(4-Chloro-3-fluoro-phenyl)-1-[1-(3-methyl-oxetane-3-carbonyl)-piperidine-4-carbonyl]-pyrrolidin-3-yl}-ethyl-carbamic acid 4-fluoro-phenyl ester] | 3
CCN(C(=O)Oc1ccc(F)cc1)[C@@H]1CN(C(=O)C2CCN(C(=O)C3CC(F)(F)C3)CC2)C[C@H]1c1ccc(Cl)c(F)c1 [Example 66, {(3S,4R)-4-(4-Chloro-3-fluoro-phenyl)-1-[1-(3,3-difluoro-cyclobutanecarbonyl)-piperidine-4-carbonyl]-pyrrolidin-3-yl}-ethyl-carbamic acid 4-fluoro-phenyl ester] | 1
CCN(C(=O)Oc1ccc(F)cc1)[C@@H]1CN(C(=O)C2CCN(C(=O)C3CCC3)CC2)C[C@H]1c1ccc(Cl)c(F)c1 [Example 67, [(3S,4R)-4-(4-Chloro-3-fluoro-phenyl)-1-(1-cyclobutanecarbonyl-piperidine-4-carbonyl)-pyrrolidin-3-yl]-ethyl-carbamic acid 4-fluoro-phenyl ester] | 2
CCN(C(=O)Oc1ccc(F)cc1)[C@@H]1CN(C(=O)C2CCN(C(=O)C3(C(F)(F)F)CCC3)CC2)C[C@H]1c1ccc(Cl)c(F)c1 [Example 68, {(3S,4R)-4-(4-Chloro-3-fluoro-phenyl)-1-[1-(1-trifluoromethyl-cyclobutanecarbonyl)-piperidine-4-carbonyl]-pyrrolidin-3-yl}-ethyl-carbamic acid 4-fluoro-phenyl ester] | 2
CCN(C(=O)Oc1ccc(F)cc1)[C@@H]1CN(C(=O)C2CCN(C(=O)C3CC(F)C3)CC2)C[C@H]1c1ccc(Cl)c(F)c1 (stereo partly drawn) [Example 69, {(3S,4R)-4-(4-Chloro-3-fluoro-phenyl)-1-[1-(3-fluoro-cyclobutanecarbonyl)-piperidine-4-carbonyl]-pyrrolidin-3-yl}-ethyl-carbamic acid 4-fluoro-phenyl ester] | 2
CCN(C(=O)Oc1ccc(F)cc1)[C@@H]1CN(C(=O)C2CCN(C(=O)C3CC3(F)F)CC2)C[C@H]1c1ccc(Cl)c(F)c1 (stereo partly drawn) [Example 70, {(3S,4R)-4-(4-Chloro-3-fluoro-phenyl)-1-[1-(2,2-difluoro-cyclopropanecarbonyl)-piperidine-4-carbonyl]-pyrrolidin-3-yl}-ethyl-carbamic acid 4-fluoro-phenyl ester] | 4

Same assay, conditions: read-out: Data Ki (hNK-3 receptor affinity)

SMILES | Ki [nM]
CCN(C(=O)Oc1ccc(F)cc1)[C@@H]1CN(C(=O)C2CCN(C(=O)C3(C(F)(F)F)CC3)CC2)C[C@H]1c1ccc(Cl)c(F)c1 [Example 71, {(3S,4R)-4-(4-Chloro-3-fluoro-phenyl)-1-[1-(1-trifluoromethyl-cyclopropanecarbonyl)-piperidine-4-carbonyl]-pyrrolidin-3-yl}-ethyl-carbamic acid 4-fluoro-phenyl ester] | 4
CCN(C(=O)Oc1ccc(F)cc1)[C@@H]1CN(C(=O)C2CCN(C(=O)C3(C#N)CC3)CC2)C[C@H]1c1ccc(Cl)c(F)c1 [Example 72, {(3S,4R)-4-(4-Chloro-3-fluoro-phenyl)-1-[1-(1-cyano-cyclopropanecarbonyl)-piperidine-4-carbonyl]-pyrrolidin-3-yl}-ethyl-carbamic acid 4-fluoro-phenyl ester] | 2
CCN(C(=O)Oc1ccc(F)cc1)[C@@H]1CN(C(=O)C2CCN(C(=O)C3CCOC(C)(C)C3)CC2)C[C@H]1c1ccc(Cl)c(F)c1 (stereo partly drawn) [Example 73, {(3S,4R)-4-(4-Chloro-3-fluoro-phenyl)-1-[1-(2,2-dimethyl-tetrahydro-pyran-4-carbonyl)-piperidine-4-carbonyl]-pyrrolidin-3-yl}-ethyl-carbamic acid 4-fluoro-phenyl ester] | 3
